# Assay results as given in US20230416225A1, “DIAMINOPYRIMIDINE CARBOXAMIDE INHIBITORS OF HPK1” (MERCK SHARP & DOHME LLC, priority 2020, published 2023).
# Target: T1, Human HPK1, catalytic domain (Homo sapiens, UniProt Q92918)
# T1 construct: purchased Carna
# T1 sequence (Q92918 1-346): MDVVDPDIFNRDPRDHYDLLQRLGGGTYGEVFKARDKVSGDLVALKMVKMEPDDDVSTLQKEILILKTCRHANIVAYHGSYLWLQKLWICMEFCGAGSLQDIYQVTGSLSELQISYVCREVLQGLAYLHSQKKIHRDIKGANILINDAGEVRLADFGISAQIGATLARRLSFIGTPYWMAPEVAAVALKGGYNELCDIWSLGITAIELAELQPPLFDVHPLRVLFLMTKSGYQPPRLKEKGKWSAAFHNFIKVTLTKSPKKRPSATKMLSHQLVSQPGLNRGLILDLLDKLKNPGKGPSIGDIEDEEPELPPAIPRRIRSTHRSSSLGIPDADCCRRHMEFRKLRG
# Experiment: HPK1-SLP76 TR-FRET assay
# Assay type: biochemical
# Settings: 75 pM HPK1, 10 uM ATP, 10 nM SLP76, 30 min compound pre-incubation
structure (smiles),measurement,value
"CCC1[C@@H](C(=O)Nc2ncc(C(N)=O)c(Nc3ccccc3Br)n2)[C@@H]1c1cnn(C)c1 (stereo partly drawn) [Example 22-2, 4-[(2-bromophenyl)amino]-2-{[(1R,3R)-2-ethyl-3-(1-methyl-1H-pyrazol-4-yl)cyclopropane-1-carbonyl]amino}pyrimidine-5-carboxamide]",IC50,468 nM
"NC(=O)c1cnc(Nc2ccc3c(c2)COC3=O)nc1N[C@H](CO)c1ccccc1 [Example 26-44, 4-{[(1S)-2-hydroxy-1-phenylethyl]amino}-2-[(1-oxo-1,3-dihydro-2-benzofuran-5-yl)amino]pyrimidine-5-carboxamide]",IC50,92.1 nM
"COc1cc2c(cc1Nc1ncc(C(N)=O)c(Nc3ccccc3CC3(F)COC3)n1)CN(C)CC2 [Example 13-4, 4-({2-[(3-fluorooxetan-3-yl)methyl]phenyl}amino)-2-[(6-methoxy-2-methyl-1,2,3,4-tetrahydroisoquinolin-7-yl)amino]pyrimidine-5-carboxamide]",IC50,0.66 nM
"CNCc1ccccc1Nc1nc(Nc2cc3c(cc2OC)CCN(C)C3)ncc1C(N)=O [Example 2-4, 2-[(6-methoxy-2-methyl-1,2,3,4-tetrahydroisoquinolin~7-yl)amino]-4-({2-[(methylamino)methyl]-phenyl}amino)pyrimidine-5-carboxamide]",IC50,0.63 nM
"C#Cc1ccccc1Nc1nc(Nc2cc3c(cc2OC)CCN(C)C3)ncc1C(N)=O [Example 7-102, 4-[(2-ethynylphenyl)amino]-2-[(6-methoxy-2-methyl-1,2,3,4-tetrahydroisoquinolin-7-yl)amino]pyrimidine-5-carboxamide]",IC50,0.61 nM
"COc1nn(C)cc1Nc1ncc(C(N)=O)c(Nc2cccc3c2CCNC3)n1 [Example 7-9, 2-[(3-methoxy-1-methyl-1H-pyrazol-4-yl)amino]-4-[(1,2,3,4-tetrahydroisoquinolin-5-yl)amino]pyrimidine-5-carboxamide]",IC50,1.17 nM
"COc1cc2c(cc1Nc1ncc(C(N)=O)c(Nc3ccccc3Cc3ccccc3)n1)CN(C)CC2 [Example 13-3, 4-[(2-benzylphenyl)amino]-2-[(6-methoxy-2-methyl-1,2,3,4-tetrahydroisoquinolin-7-yl)amino]pyrimidine-5-carboxamide]",IC50,30.6 nM
"CCOc1ccccc1CNc1nc(Nc2cc3c(cc2OC)CCN(C)C3)ncc1C(N)=O [Example 26-23, 4-{[(2-ethoxyphenyl)methyl]amino}-2-[(6-methoxy-2-methyl-1,2,3,4-tetrahydroisoquinolin-7-yl)amino]pyrimidine-5-carboxamide]",IC50,3.69 nM
"CS(=O)(=O)Cc1ccc(Nc2ncc(C(N)=O)c(Nc3cccc4c3CCNC4=O)n2)cc1 [Example 7-59, 2-({4-[(methylsulfonyl)methyl]phenyl}amino)-4-[(1-oxo-1,2,3,4-tetrahydroisoquinolin-5-yl)amino]pyrimidine-5-carboxamide]",IC50,2.15 nM
"COc1ccc(Cl)cc1Nc1ncc(C(N)=O)c(Nc2cccc3c2CCNC3=O)n1 [Example 25-33, 2-[(5-chloro-2-methoxyphenyl)amino]-4-[(1-oxo-1,2,3,4-tetrahydroisoquinolin-5-yl)amino]pyrimidine-5-carboxamide]",IC50,187 nM
"CCS(=O)(=O)N1CCc2cc(OC)c(Nc3ncc(C(N)=O)c(Nc4ccccc4Br)n3)cc2C1 [Example 10-6, 4-[(2-bromophenyl)amino]-2-{[2-(ethylsulfonyl)-6-methoxy-1,2,3,4-tetrahydroisoquinolin-7-yl]amino}pyrimidine-5-carboxamide]",IC50,41.6 nM
"COc1cc2c(cc1Nc1ncc(C(N)=O)c(Nc3cn(C)nc3C3CC3)n1)CN(C)CC2 [Example 7-81, 4-((3-cyclopropyl-1-methyl-1H-pyrazol-4-yl)amino)-2-((6-methoxy-2-methyl-1,2,3,4-tetrahydroisoquinolin-7-yl)amino)pyrimidine-5-carboxamide]",IC50,3.08 nM
"COc1cc(C2CCNCC2)ccc1Nc1ncc(C(N)=O)c(Nc2ccccc2C(F)(F)F)n1 [Example 8-2, 2-((2-methoxy-4-(piperidin-4-yl)phenyl)amino)-4-((2-(trifluoromethyl)phenyl)amino)pyrimidine-5-carboxamide]",IC50,11.7 nM
